Where two headings read alike, the source gives them in different places.
Columns and labels:
[1] = Mouse pharmacokinetic studies (IV and PO); type: in vivo, Male CD-1 mice; conditions: for PO F: PO 10 mg/kg vs IV 2.0 mg/kg; for Vd / AUC(0-t) / clearance / half-life / Cmax / Tmax: male, CD-1, plasma; for clearance: read-out: IV Cl; for half-life: read-out: IV T½ (converted)
Method: Mouse Pharmacokinetic Studies
Typical PK study procedure. For i.v. PK studies, a group of three fasted Male CD-1 mice were dosed with the compound (2.0 mg/kg, 0.50 mg/mL in 5% solutol in saline, clear solution), and 0.02 mL blood was collected at 0.0830, 0.250, 0.500, 1.00, 2.00, 4.00, 8.00, 24.0 h. For PO PK studies, a group of three fasted Male CD-1 mice were dosed with the compound (10 mg/kg, 1 mg/mL in 5% solutol in saline, clear solution), and 0.02 mL blood was collected at 0.250, 0.500, 1.00, 2.00, 4.00, 6.00, 8.00, 24.0 h. The blood was collected into EP tubes (containing EDTA K20.85-1.15 mg) and centrifuged at 3,000 g or 3,200 g at 4° C. for 10 min) and plasma was isolated and divided into two vials. One was used for bioanalysis and one was kept as backup. The samples were kept at −60° C. or below, until being analyzed by LC MS/MS. The samples were analyzed with AB SCIEX INSTRUMENTS LC-MS/MS AU-Triple Quad 6500 Plus and data were processed with Phoenix WinNonlin 6.3 (IV-noncompartmental model and PO-noncompartmental model).

hFXR-LBD-GAL4 = target: T1, hFXR-LBD-GAL4 (Homo sapiens, UniProt Q96RI1); experiment: FXR agonist transactivation ability: luciferase reporter gene in HEK293T; type: cell-based; conditions: read-out: Cell activity
T1 construct: GAL4 (fusion partner); host or cells: HEK293T
T1 sequence (Q96RI1 262-486 limits assumed): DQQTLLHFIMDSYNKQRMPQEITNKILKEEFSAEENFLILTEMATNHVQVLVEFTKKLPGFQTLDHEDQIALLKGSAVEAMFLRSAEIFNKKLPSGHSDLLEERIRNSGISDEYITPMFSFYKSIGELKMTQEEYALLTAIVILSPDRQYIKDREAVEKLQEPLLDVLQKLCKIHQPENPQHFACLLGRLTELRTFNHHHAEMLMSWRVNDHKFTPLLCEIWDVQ
Method: FXR Agonist Transactivation Ability
Evaluation of the ability of the compound of the present invention to promote FXR transactivation was conducted by using luciferase reporter gene expression technology.
• 1. Cell line: HEK293T (Invitrogen) • 2. Expression plasmid: pBIND-hFXR-LBD-GAL4 (Promega), pGL4.35-luciferase (Promega) • 3. Cell culture medium: 10% serum and penicillin/streptomycin double antibody in DMEM medium • 4. Detection reagent: Steady-Glo fluorescence detection system (Promega). • 5. Transfection reagent: TransIT-293 Transfection Reagent (MIRUS BIO)
• 1. The compound was prepared into a 10 mM DMSO stock solution and stored in a −20° C. refrigerator for a long time. • 2. Resuscitation HEK293T cells were seeded in 10 cm culture dishes at a concentration of 5.5×10^6 and incubated for 16 hours at 37° C. in a 5% CO2 incubator. • 3. Return the transfection reagent to room temperature before transfection. The Trans-IT solution was added dropwise to Opti-MEM, and mixed by inversion for 5 minutes; the expression plasmid was added, mixed by inversion, and incubated at room temperature for 20 minutes. • 4. Add the transfection mixture from Step 3 to the prepared 10 cm dish in Step 2 and incubate for 5-6 hours in a 5% CO2 incubator. • 5. Dilute the compound 3 folds to 10 concentration points using DMSO; add 25 nl of compound per well in a 384-well plate using an Echo 550 sonic pipette; add HEK293T cells to the 384-well plate at a concentration of 15,000 cells/well; 37° C. incubate for 16-20 hours in a 5% CO2 incubator. • 6. Add 25 μl of Steady-Glo Fluorescent Reagent to each well and read the fluorescence on an Envision 2104 plate reader. • 7. Calculate the EC50 value of the activation of the compound.

human FXR protein = target: T2, human FXR protein (Homo sapiens, UniProt Q96RI1); experiment: FXR agonist binding ability: time-resolved fluorescence (LanthaScreen) FXR/coactivator assay; type: biochemical; conditions: GST-labeled human FXR, fluorescein-labeled coactivator, TR-FRET
T2 construct: purchased Invitrogen
Method: FXR Agonist Binding Ability Evaluation of the activation effect of the compound of the present invention with regard to the binding of FXR to its co-stimulatory factor SRC-1 was conducted by using time-resolved analytical techniques. Protein: glutathione-S-transferase (GST)-labeled human FXR protein (Invitrogen) • 2. Coactivator: Fluorescein-labeled steroid receptor coactivator (SRC2-2) (Invitrogen) • 3. Detection reagent: LanthaScreen Time-Resolved Fluorescence Analysis Kit (Invitrogen) • 1. The compound was prepared into a 10 mM DMSO stock solution and stored in a −20° C. refrigerator for a long time. • 2. The compound was diluted to 1 mM before the experiment, and then the compound was diluted 3-fold to 10 concentration points using DMSO. Then use buffer G (Invitrogen, PV4553) to dilute these 10 concentration points by 50 times to become a working fluid. Add 10 μl of each working solution to each well of a 384-well plate. • 3. Prepare a human FXR protein solution (final concentration 20 nM) in chilled buffer G and add 5 μl of human FXR protein solution to each well of a 384-well plate. • 4. Prepare a mix of buffer G containing 2 μM fluorescein-labeled steroid receptor coactivator and 20 nM GST antibody. • 5. Add 5 μl of the mixture prepared in Step 4 to a 384-well plate. • 6. Centrifuge the 384-well plate at 1000 g for 1 minute. • 7. Incubate for 1 hour at room temperature in the dark. • 8. Read the 384-well plate at 520 nm and 495 nm on an Envision 2104 plate reader. • 9. Calculate the EC50 value of the activation effect of the compound.

[2] = IV 2.0 mg/kg, read-out: IV AUC 0-t
[3] = PO 10 mg/kg, read-out: PO AUC 0-t

## O=C(O)c1ccc(Oc2ccc3cc(OCc4c(-c5c(Cl)cccc5Cl)noc4C4CC4)ccc3c2Cl)nc1 [Compound 21, 6-((1-chloro-6-((5-cyclopropyl-3-(2,6-dichlorophenyl)isoxazol-4-yl)methoxy)naphthalen-2-yl)oxy)nicotinic acid]
[1]
  PO F: 46.2%
[1]; IV 2.0 mg/kg
  Vd: 1.75 L/kg
  clearance: 35.8 mL/min/kg
  half-life: 76.8 min
[1]; [2]
  AUC(0-t): 969 ng·h/mL
[1]; PO 10 mg/kg
  Cmax: 1480 ng/mL
  Tmax: 30 min
[1]; [3]
  AUC(0-t): 2220 ng·h/mL
hFXR-LBD-GAL4
  EC50: < 200 nM
Human FXR protein
  EC50: 50 to 500 nM

## O=C(O)c1ccc(Oc2ccc3ccc(OCc4c(-c5c(Cl)cccc5Cl)noc4C4CC4)cc3c2)nc1 [Compound 31, 6-((7-((5-cyclopropyl-3-(2,6-dichlorophenyl)isoxazol-4-yl)methoxy)naphthalen-2-yl)oxy)nicotinic acid]
[1]
  PO F: 9.74%
[1]; IV 2.0 mg/kg
  Vd: 2.77 L/kg
  clearance: 110 mL/min/kg
  half-life: 36.8 min
[1]; [2]
  AUC(0-t): 304 ng·h/mL
[1]; PO 10 mg/kg
  Cmax: 133 ng/mL
  Tmax: 20 min
[1]; [3]
  AUC(0-t): 140 ng·h/mL
hFXR-LBD-GAL4
  EC50: < 200 nM
Human FXR protein
  EC50: < 50 nM

## Cc1nc(Oc2c(F)ccc3cc(OCc4c(-c5c(Cl)cccc5Cl)noc4C4CC4)ccc23)ccc1C(=O)O [Compound 45, 6-((6-((5-cyclopropyl-3-(2,6-dichlorophenyl)isoxazol-4-yl)methoxy)-2-fluoronaphthalen-1-yl)oxy)-2-methylnicotinic acid]
[1]
  PO F: 15.7%
[1]; IV 2.0 mg/kg
  Vd: 1.04 L/kg
  clearance: 22.1 mL/min/kg
  half-life: 84 min
[1]; [2]
  AUC(0-t): 1500 ng·h/mL
[1]; PO 10 mg/kg
  Cmax: 627 ng/mL
  Tmax: 60 min
[1]; [3]
  AUC(0-t): 1140 ng·h/mL
hFXR-LBD-GAL4
  EC50: < 200 nM
Human FXR protein
  EC50: < 50 nM

## O=C(O)c1ccc(F)cc1Oc1cccc2cc(OCc3c(-c4c(Cl)cccc4Cl)noc3C3CC3)ccc12 [Compound 26, 2-((6-((5-cyclopropyl-3-(2,6-dichlorophenyl)isoxazol-4-yl)methoxy)naphthalen-1-yl)oxy)-4-fluorobenzoic acid]
[1]
  PO F: 17%
[1]; IV 2.0 mg/kg
  Vd: 0.745 L/kg
  clearance: 35 mL/min/kg
  half-life: 37.2 min
[1]; [2]
  AUC(0-t): 969 ng·h/mL
[1]; PO 10 mg/kg
  Cmax: 900 ng/mL
  Tmax: 30 min
[1]; [3]
  AUC(0-t): 830 ng·h/mL
hFXR-LBD-GAL4
  EC50: < 200 nM
Human FXR protein
  EC50: < 50 nM

## O=C(O)c1ccc(Oc2cccc3cc(OCc4c(-c5c(Cl)cccc5Cl)noc4C4CC4)ccc23)nc1 [Compound 22, 6-((6-((5-cyclopropyl-3-(2,6-dichlorophenyl)isoxazol-4-yl)methoxy)naphthalen-1-yl)oxy)nicotinic acid]
[1]
  PO F: 32%
[1]; IV 2.0 mg/kg
  Vd: 1.84 L/kg
  clearance: 73.8 mL/min/kg
  half-life: 50.2 min
[1]; [2]
  AUC(0-t): 448 ng·h/mL
[1]; PO 10 mg/kg
  Cmax: 894 ng/mL
  Tmax: 30 min
[1]; [3]
  AUC(0-t): 718 ng·h/mL
hFXR-LBD-GAL4
  EC50: < 200 nM
Human FXR protein
  EC50: < 50 nM

## Cc1nc(Oc2cccc3c(F)c(OCc4c(-c5c(Cl)cccc5Cl)noc4C4CC4)ccc23)ccc1C(=O)O [Compound 39, 6-((6-((5-cyclopropyl-3-(2,6-dichlorophenyl)isoxazol-4-yl)methoxy)-5-fluoronaphthalen-1-yl)oxy)-2-methylnicotinic acid]
hFXR-LBD-GAL4
  EC50: < 200 nM
Human FXR protein
  EC50: < 50 nM

## O=C(O)c1cccnc1Oc1ccc2cc(OCc3c(-c4c(Cl)cccc4Cl)noc3C3CC3)ccc2c1 [Compound 15, 2-((6-((5-cyclopropyl-3-(2,6-dichlorophenyl)isoxazol-4-yl)methoxy)naphthalen-2-yl)oxy)nicotinic acid]
hFXR-LBD-GAL4
  EC50: > 1000 nM
Human FXR protein
  EC50: 50 to 500 nM

## O=C(O)c1c(F)cccc1Oc1cccc2cc(OCc3c(-c4c(Cl)cccc4Cl)noc3C3CC3)ccc12 [Compound 49]
hFXR-LBD-GAL4
  EC50: > 1000 nM
Human FXR protein
  EC50: 50 to 500 nM

## O=C(O)c1cnc(Oc2ccc3cc(OCc4c(-c5c(Cl)cccc5Cl)noc4C4CC4)ccc3c2)c(Cl)c1 [Compound 3, 5-chloro-6-((6-((5-cyclopropyl-3-(2,6-dichlorophenyl)isoxazol-4-yl)methoxy)naphthalen-2-yl)oxy)nicotinic acid]
hFXR-LBD-GAL4
  EC50: > 1000 nM
Human FXR protein
  EC50: > 500 nM

## O=C(O)c1ccc(Oc2ccc3cc(OCc4c(-c5c(Cl)cccc5Cl)noc4C4CC4)ccc3c2)cn1 [Compound 9, 5-((6-((5-cyclopropyl-3-(2,6-dichlorophenyl)isoxazol-4-yl)methoxy)naphthalen-2-yl)oxy)picolinic acid]
hFXR-LBD-GAL4
  EC50: > 1000 nM
Human FXR protein
  EC50: 50 to 500 nM

## O=C(O)c1ccc(Oc2ccc3c(Cl)c(OCc4c(-c5c(Cl)cccc5Cl)noc4C4CC4)ccc3c2)nc1 [Compound 29, 6-((5-chloro-6-((5-cyclopropyl-3-(2,6-dichlorophenyl)-isoxazol-4-yl)methoxy)naphthalen-2-yl)oxy)nicotinic acid]
hFXR-LBD-GAL4
  EC50: 500 to 1000 nM
Human FXR protein
  EC50: 50 to 500 nM

## O=C(O)c1ccc(Oc2ccc3cc(OCc4c(-c5c(Cl)cccc5Cl)noc4C4CC4)ccc3c2)nn1 [Compound 2, 6-((6-((5-cyclopropyl-3-(2,6-dichlorophenyl)isoxazol-4-yl)methoxy)naphthalen-2-yl)oxy)pyridazine-3-carboxylic acid]
hFXR-LBD-GAL4
  EC50: > 1000 nM
Human FXR protein
  EC50: 50 to 500 nM

## O=C(O)c1ccccc1Oc1ccc2cc(OCc3c(-c4c(Cl)cccc4Cl)noc3C3CC3)ccc2c1 [Compound 14, 2-((6-((5-cyclopropyl-3-(2,6-dichlorophenyl)isoxazol-4-yl)methoxy)naphthalen-2-yl)oxy)benzoic acid]
hFXR-LBD-GAL4
  EC50: > 1000 nM
Human FXR protein
  EC50: 50 to 500 nM

## Cc1nc(Oc2ccc3c(F)c(OCc4c(-c5c(Cl)cccc5Cl)noc4C4CC4)ccc3c2)ccc1C(=O)O [Compound 37, 6-((6-((5-cyclopropyl-3-(2,6-dichlorophenyl)isoxazol-4-yl)methoxy)-5-fluoronaphthalen-2-yl)oxy)-2-methylnicotinic acid]
hFXR-LBD-GAL4
  EC50: > 1000 nM
Human FXR protein
  EC50: 50 to 500 nM

## O=C(O)c1ccc(Oc2ccc3cc(OCc4c(-c5c(Cl)cccc5Cl)noc4C4CC4)ccc3c2)nc1Cl [Compound 8, 2-chloro-6-((6-((5-cyclopropyl-3-(2,6-dichlorophenyl)isoxazol-4-yl)methoxy)naphthalen-2-yl)oxy)nicotinic acid]
hFXR-LBD-GAL4
  EC50: 500 to 1000 nM
Human FXR protein
  EC50: 50 to 500 nM
